Legend:
[1] = tested on: Escherichia coli; assay: Agar diffusion test Escherichia coli; assay type: cell-based; conditions: for Inhibition Zone: Escherichia coli (ATCC 8739), gram-negative
Excerpt: (§1) Different gram-negative and gram-positive bacteria are used for testing the compounds of the present disclosure: Staphylococcus aureus and Escherichia coli (ATCC-LGC Standards GmbH, Wesel, Germany); Enterococcus faecilis, Enterococcus faecilum, Staphylococcus aureus, Clostridium difficile, Acineobacter baumannii, Pseudomonas aeruginosa, Stenotrophomonas maltophilia, Citrobacter freundii, Escherichia coli, Klebsiella pneomoniae, Morganelle morganii, Bactroides fragilis, Helicobacter pylori (fresh clinical isolates). All isolates are cultured with Müller-Hinton-Agar excluding Bacteroides fragilis and Helcobacter pylori. Bacteroides fragilis is cultured with Müller-Hinton-Agar containing 5% Horseblood and 20 mg/l ß-NAD. Helicobacter pylori is cultured with Chocolat PolyViteX-Agar.
(§2) The antibacterial potential of compounds is examined by the Kirby-Bauer disc diffusion test using Müller-Hington agar. A 10 mm diameter disk soaked in 150 μl of distilled water containing 10 mg of the test substance was placed on Müller-Hington agar (bioMeieux, Geneve, Switzerland) holding a pre-lawn of the according test bacteria. The plates are incubated at 37° C. for 24 hours and the zone of inhibition is recorded. Culture media and sterilized distilled water were used as a control. N-acetylcysteine (NAC) is used as an anti-oxidant control.

[2] = tested on: Enterococcus faecium; assay: Agar diffusion test Enterococcus faecium; assay type: cell-based; conditions: 10 mm disk with 10 mg test substance, 37° C., 24 hours
Excerpt: as §1, §2

[3] = tested on: MDA MB 468 cells; assay: Cell migration assay (scratch of confluent monolayer); assay type: cell-based, human; conditions: 2 to 5 days, compared to untreated control, semi-quantified (FIG. 1)
Procedure: Cells are plated into the 60-mm dishes to create a confluent monolayer and are incubated for 24 hours allowing cells to adhere and spread. The required number of cells for a confluent monolayer depends on the particular cell type. After creating a scratch of the cell monolayer, the gaparea is examined by phase-contrast-microscopy. Images are captured at the beginning and at regular intervals during cell migration (48, 72, and 120 hours (5 d)) closing the scratch, to semi-quantify the migration rate of the cells.
Cell migration assay: cell migration of compounds 2289, 2244, 2287, 2255, 2256 compared to non-treated control (NK) and positive control (compound 2250). Comparative compounds 2244, 2287, 2255, 2256 have the following structures:
Using cell migration assays, the migration rate of different cancer cell entities under treatment with 2289, negative control and positive control (2250) was semi-quantified.

[4] = tested on: MDA MB 468, HT29, MCC 14.2, Panc TuI; assay: MTT assay for cell viability, all tested cancer cell lines (Example 2); assay type: cell-based, human; conditions: FIG. 2
Procedure: (§3) Cells are seeded individually to obtain a sub confluent monolayer in a 96 well plate format and are incubated for 24 hours prior treatment. To examine a dose response regarding the antineoplastic activity cells are incubated with increasing concentrations (100, 200, 500, 1000, 1500, 2000 μmol/l) of all different Oxathiazinane derivatives and ddH2O as control for 24 and 48 hours. After the exposition time 10 μl MTT (3-(4,5-Dimethylthiazol-2-yl)-2,5-diphenyltetrazoliumbromid) reagent (5 mg/ml) is added and incubated for 2 hours before violet Formazan crystals are dissolved in 100 μl DMSO (Dimethylsulfoxide). Viability of the cells can be analyzed by using a microplate absorbance reader by measuring the OD560 (ASYS, UVM340, Anthos Mikrosystheme GmbH, Germany). The assay is performed using 8 replicates in three independent experiments with consecutive passages.
(§4) Anti-neoplastic activity of compounds 2289, 2293, and 2296 was determined according to the MTT assay and BrdU assay described above.

[5] = tested on: all tested cancer cell lines (MDA MB 468 highest, MCC 14.2 lowest response); assay: BrdU assay for cell proliferation, all tested cancer cell lines (Example 2); assay type: cell-based, human; conditions: FIG. 3
Procedure: Cells are seeded individually to obtain a sub confluent monolayer in a 96 well plate format and are incubated for 24 hours prior to treatment. To examine the dose response regarding their anti-proliferative activity, cells are incubated with increasing concentrations (100, 200, 500, 1000, 1500 and 2000 μmol/l) of all different Oxathiazinane derivates and ddH2O as control for 6 h prior BrdU proliferation assay (5-bromo-2-deoxyuridine)-ELISA (Roche Applied Science, Mannheim, Germany) according to the manufacturer's instructions. […] The amount of synthesized DNA is detected using a microplate absorbance reader measuring at 370 nm with a reference wavelength of 492 nm (ASYS, UVM340, Anthos Mikrosysteme GmbH, Krefeld, Germany). BrdU assays are performed with 8 replicates of three independent experiments with consecutive passages.
as §4

[6] = tested on: Staphylococcus aureus (MRSA); assay: Agar diffusion test Staphylococcus aureus (MRSA); assay type: cell-based; conditions: for Inhibition Zone: Staphylococcus aureus (MRSA Nr. 2065), gram-positive
Excerpt: as §1, §2

[7] = tested on: Enterococcus faecalis; assay: Agar diffusion test Enterococcus faecalis; assay type: cell-based; conditions: 10 mm disk with 10 mg test substance, 37° C., 24 hours
Excerpt: as §1, §2

[8] = previously reported; cited from earlier work
[9] = tested on: Staphylococcus aureus (ATCC 6538); assay: Agar diffusion test Staphylococcus aureus (ATCC 6538); assay type: cell-based; conditions: gram-positive
Excerpt: as §1, §2

[10] = Human fresh blood stability / half-life at 37° C. in vitro; assay type: in vitro ADME; conditions: for human blood stability profile compared to 2250: K2-EDTA human blood; for half-life compared to the half-life of taurolidine / half-life at 256 μM: human; for half-life at 256 μM: blood
Procedure: The half-life of each of compounds 2289, 2293, and 2296 in human fresh blood was measured at 37° C. in vitro. For 2289 and 2293 into 2250, K2-EDTA human blood was spiked with 2289 or 2293 at 256 μM; 2250 at 26 μM and 2244 at 26 μM (n=1). The pool remained at 37° C. for 20-25 min and then an aliquot was centrifuged (2500 g for at least 5 minutes at 4° C.). After centrifugation the human plasma was collected and immediately frozen at −80° C. This aliquot corresponded to the T0. The remaining pool was aliquoted and kept at 37° C. An aliquot was collected, centrifuged (2500 g for at least 5 minutes at 4° C.) and the recovered plasma was frozen at −80° C. after at least 0.25, 0.5, 1, 6, 8, 24 and 48 hours. Stability was determined by measuring the 2289 and 2293 peak area at each time point compared to T0. For 2296 into its metabolite 1-hydoxypropane-2-sulfonamide, K2-EDTA human blood was spiked with 2296 at 256 μM and 1-hydroxypropane-2-sulfonamide at 26 μM (n=1). The pool remained at 37° C. for 20-25 min and then an aliquot was centrifuged (2500 g for at least 5 minutes at 4° C.). After centrifugation the human plasma was collected and immediately frozen at −80° C. This aliquot corresponded to the TO. The remaining pool was aliquoted and kept at 37° C. An aliquot was collected, centrifuged (2500 g for at least 5 minutes at 4° C.) and the recovered plasma frozen at −80° C. after at least 0.5, 1, 3, 6, 8 and 24 hours/ Stability was determined by measuring 2296 peak area at each time point compared to T0.

[11] = Solubility in water; assay type: physicochemical; conditions: at room temperature
Procedure: Re-crystallization with, e.g., • Ethanol • Ethyl acetate • Ethyl acetate/light petroleum Physical Properties • Melting range: 79-83° C. • Solubility in water: about 1.5% at room temperature • Melting range: 52-53° C. • Solubility in water: <1.5% at room temperature • Melting range: 74-75° C. • Solubility in water: min. 1% at room temperature

[12] = tested on: AsPc1 cells; assay: MTT cytotoxicity assay AsPc1; assay type: cell-based; conditions: AsPc1, after 24 h, compared to untreated control (NC), t-test
Procedure: as §3
A MTT Cytotoxicity assay of the cell line AsPc1 with different oxathiazine derivatives was performed.

[13] = Human fresh blood stability / half-life at 37° C. in vitro; assay type: in vitro ADME; conditions: 2296 into 1-hydroxypropane-2-sulfonamide, human blood 37° C., 256 μM, Time 48 h
[14] = tested on: tumor stem cells; assay: Killing tumor stem cells in tissue culture in vitro; assay type: cell-based
Procedure: In some embodiments, the taurolidine, taurultam, or a mixture thereof is administered in a tumor stem cell killing composition at a concentration of about 0.01 to about 500 μg/ml. In some embodiments, the taurolidine, taurultam, or a mixture thereof is administered in a tumor stem cell killing composition at a concentration of about 0.1 to about 100 μg/ml. In some embodiments, the taurolidine, taurultam, or a mixture thereof is administered in a tumor stem cell killing effective composition at a concentration of about 10 to about 50 μg/ml. Taurolidine is effective at killing tumor stem cells in tissue culture in vitro at 0.01 μg/ml.

[15] = Escherichia coli, 10 mm disk with 10 mg test substance, 37° C., 24 hours
[16] = Staphylococcus aureus (MRSA), 10 mm disk with 10 mg test substance, 37° C., 24 hours
[17] = 2289 or 2293 spiked at 256 μM into K2-EDTA human blood, 37° C., Time 0 h (T0, after 20-25 min at 37° C.)

Row | human blood stability profile compared to 2250 ([10]; 37° C.) | half-life compared to the half-life of taurolidine [10] | half-life at 256 μM [10] [h] | Solubility in water [11] | Structure (SMILES) | zone of inhibition at 10000 µg/disc [1, 15] [mm] | zone of inhibition at 10000 µg/disc [6, 16] [mm] | Inhibition Zone [1] [mm] | Inhibition Zone [9] [mm] | other results
1 | – | – | – | – | NS(=O)(=O)CCO [Compound 2244] | < 10 | – | – | – | zone of inhibition at 10000 µg/disc [2]: < 10 mm
2 | – | – | – | – | O=S1(=O)CCOCN1 [Compound 2250] | – | – | – | – | migration rate [3]: clearly inhibited; reduction of living cells (cell viability, MTT) [4]: significant reduction of living cells; reduction of proliferating cells (BrdU) [5]: significant reduction of proliferating cells; Zone of inhibition [1, 15]: 24.5 mm; Zone of inhibition [6, 16]: 49.5 mm; Zone of inhibition [7]: 42.5 mm); half-life compared to taurolidine [8]: significantly longer half-life
3 | – | – | – | – | CN1COCCS1(=O)=O [Compound 2255] | < 10 | < 10 | – | – | –
4 | – | – | – | – | CC1NS(=O)(=O)CCO1 (centres unmarked) [Compound 2256] | < 10 | < 10 | – | – | –
5 | – | – | – | – | CC1OCCS(=O)(=O)N1C (centres unmarked) [Compound 2287] | < 10 | < 10 | – | – | –
6 | very similar profile | significantly higher | 5 to 6 | about 1.5% | CC(=O)N1COCCS1(=O)=O [Compound 2289] | 18.5 | 27.5 | 18.5 | 27.5 | migration rate [3]: lower migration rate; reduction of living cells (cell viability, MTT) [4]: significant reduction of living cells; reduction of proliferating cells (BrdU) [5]: significant reduction of proliferating cells; % Stability [10, 17]: Not stable-
7 | very similar profile | significantly higher | 5 to 6 | < 1.5% | CCC(=O)N1COCCS1(=O)=O [Compound 2293] | – | – | 19.5 | 31.5 | concentration from which a significant impact on cell viability is shown [12]: ≥ 500 µM; Inhibition Zone [6]: 32.5 mm; % Stability [10, 17]: Not stable-
8 | very similar profile | significantly higher | 5 to 6 | ≥ 1% | CC1COCNS1(=O)=O (centres unmarked) [Compound 2296] | – | – | 23.0 | 38.0 | Inhibition Zone [6]: 43.0 mm; % Stability ([10]; 2296 into 1-hydroxypropane-2-sulfonamide, human blood 37° C., 256 μM, Time 0 h): 100%; % Stability ([10]; 2296 into 1-hydroxypropane-2-sulfonamide, human blood 37° C., 256 μM, Time 0.5 h): 97%; % Stability ([10]; 2296 into 1-hydroxypropane-2-sulfonamide, human blood 37° C., 256 μM, Time 1 h): 92%; % Stability ([10]; 2296 into 1-hydroxypropane-2-sulfonamide, human blood 37° C., 256 μM, Time 3 h): 71%; % Stability ([10]; 2296 into 1-hydroxypropane-2-sulfonamide, human blood 37° C., 256 μM, Time 6 h): 52%; % Stability ([10]; 2296 into 1-hydroxypropane-2-sulfonamide, human blood 37° C., 256 μM, Time 8 h): 42%; % Stability ([10]; 2296 into 1-hydroxypropane-2-sulfonamide, human blood 37° C., 256 μM, Time 24 h): 7%; % Stability [13]: 1%
9 | – | – | – | – | O=S1(=O)CCN(CN2CCS(=O)(=O)NC2)CN1 [taurolidine] | – | – | – | – | concentration effective at killing tumor stem cells [14]: 0.01 µg/mL; half-life [8]: about 30 minutes

From US12612375B2, “Antimicrobial and anticancer agents” (Persevere Therapeutics Inc., priority 2021, dated 2026)
